{
  "source": "paper PMC6720511",
  "about": "“Synthesis and biological evaluation of novel N-(piperazin-1-yl)alkyl-1H-dibenzo[a,c]carbazole derivatives of dehydroabietic acid as potential MEK inhibitors” (Journal of Enzyme Inhibition and Medicinal Chemistry, 2019)",
  "assay_type_in_all_cases": "cell-based, human",
  "key": {"pERK1/2": {"tested_on": "pERK1/2", "test": "Western blot of ERK and pERK in HepG2 cells", "details": "48 h", "description": "HepG2 cells were seeded at a density of 5 × 10^6 cells per well and attached for 8 h, and then treated with different concentrations of compound 10g for 48 h. After the treatment, the cells were harvested and washed twice with PBS. The harvested cells were lysed with radio-immunoprecipitation assay (RIPA) lysis buffer (Beyotime Biotech., Nantong, China) with 1% cocktail (Sigma-Aldrich, USA). Whole-cell protein lysates were prepared and centrifuged at 12,000 rpm for 10 min at 4 °C. The total proteins were determined using Bradford reagent (Bio-Rad Laboratories, Inc., USA). Exactly 40 µg of protein per lane was separated through sodium dodecyl sulfate-polyacrylamide gel electrophoresis and then transferred onto a polyvinylidene difluoride membrane (Millipore, Bedford, MA, USA). The membranes were incubated with each antibody and detected through immunoblot analysis. All of the antibodies were purchased from Cell signaling Technology, Inc. (Boston, MA, USA) and diluted in accordance with the manufacturer’s instruction. Proteins were visualized using a C-Digit® imaging system (LI-COR Biosciences, Lincoln, NE, USA)."}, "HepG2 cells [1]": {"tested_on": "HepG2 cells", "test": "Cell cycle analysis (PI staining, flow cytometry)", "details": "HepG2, 2 µM (as printed in text), 48 h", "description": "Cell cycle distributions in HepG2 cells were determined through propidium iodide (PI) staining and analysed by flow cytometry. HepG2 cells were seeded into a six-well plate at 5 × 10^5 cell/mL and treated with different concentrations of compound 10g for 48 h. After treatment, cells were detached with 0.25% trypsin, harvested by centrifugation, washed twice with ice-cold PBS and then fixed and permeabilised with ice-cold 70% ethanol at 4 °C overnight. Ethanol was removed and the cells were washed twice with ice-cold PBS. After this, the cells were treated with 100 µL of RNase (100 µg/mL) at 37 °C for 30 min, followed by incubation with 400 µl of DNA staining solution (PI) (1 mg/mL) in the dark at 4 °C for 30 min. The samples were analyzed by a flow cytometer (Becton-Dickinson FACSCalibur, NJ, USA) and data were analysed using the FlowJo software (Becton-Dickinson & Co, Totowa, NJ, USA)."}, "HepG2 cells [2]": {"tested_on": "HepG2 cells", "test": "Annexin V-FITC/PI dual staining assay", "details": "HepG2, 2 µM (as printed in text), 48 h", "description": "The extent of apoptosis was quantitatively measured using Annexin V-FITC/PI dual staining assay. HepG2 cells were seeded into a six-well plate at 5 × 10^5 cells per well in 10% foetal calf serum (FBS)-DMEM into six-well plates and treated with different concentrations of the indicated compound 10g for 48 h. The cells were detached with 0.25% trypsin, washed with ice-cold PBS for twice and then resuspended in 1 × Binding buffer (0.1 M Hepes/NaOH (pH 7.4), 1.4 M NaCl, 25 mM CaCl2). The cells were stained with 5 µL of Annexin V-FITC and 5 µL of PI (propidium iodide) to each tube. The cells were gently vortexed and incubated in the dark at room temperature for 15 min and then keep them at 4 °C. The samples were analysed by a flow cytometer (Becton-Dickinson FACSCalibur, NJ, USA) and data were analysed using the FlowJo software (Becton-Dickinson & Co, Totowa, NJ, USA)."}, "HepG2 cells [3]": {"tested_on": "HepG2 cells", "test": "ROS generation assay (DCFH-DA)", "details": "dose-dependent", "description": "Reactive oxygen species (ROS) generation assay was performed by using the reactive oxygen species assay kit (Beyotime Biotech., China). Intracellular ROS generation was tested through dichlorodihydro fluorescein diacetate (DCFH-DA) assay. DCFH-DA is taken up by HepG2 cells, and then activated by esterase-mediated cleavage of acetate to form dichlorodihydro fluorescein (DCFH), which is trapped in the cells. DCFH is converted to fluorescein DCF in the presence of ROS. HepG2 cells were seeded in six-well plates and incubated with different concentrations of compound 10g for 24 h. After removing the compound solution, cells were treated with 10 µM of DCFH-DA at 37 °C for 20 min. Subsequently, the cells were washed with PBS for three times and then exposed to light. Immediately after light exposure, cell images were acquired through an inverted fluorescence microscope (Olympus 1X71 Inverted System Microscope, Olympus, Tokyo, Japan)."}},
  "data": [
    {"smiles": "CCOc1ccc2c(c1)c1c(n2CCN2CCNCC2)-c2cc(C(C)C)ccc2C2(C)CCCC(C)(C(=O)OC)C12", "note": "(centres unmarked) [Compound 10g, 2,3,4,4a,9,13c-Hexahydro-12-ethoxy-7-isopropyl-1,4a-dimethyl-9–(2-(piperazin-1-yl)ethyl)-1H-dibenzo[a,c]carbazole-1-carboxylic acid methyl ester]", "values": [
      {"measurement": "expression level of pERK1/2, % of the control group", "setting": "pERK1/2; 0.1 µM", "value": 88.8, "unit": "%"},
      {"measurement": "expression level of pERK1/2, % of the control group", "setting": "pERK1/2; 0.5 µM", "value": 43.8, "unit": "%"},
      {"measurement": "expression level of pERK1/2, % of the control group", "setting": "pERK1/2; 1.0 µM", "value": 34.2, "unit": "%"},
      {"measurement": "expression levels of ERK1/2 (in words)", "setting": "pERK1/2; 0.1-1.0 µM", "value": "decreased slightly"},
      {"measurement": "G0/G1 phase cells", "setting": "HepG2 cells [1]", "value": 55.37, "unit": "%"},
      {"measurement": "percentage of cells in G2/M phase", "setting": "HepG2 cells [1]", "value": 20.09, "unit": "%"},
      {"measurement": "percentage of early and late apoptotic cells", "setting": "HepG2 cells [2]", "value": 60.02, "unit": "%"},
      {"measurement": "ROS generation (in words)", "setting": "HepG2 cells [3]", "value": "remarkably induce ROS generation"}
    ]}
  ]
}
